Source: patent US20080269170A1, “Novel 2,4-Dianilinopyrimidine Derivatives, the Preparation Thereof, Their Use as Medicaments, Pharmaceutical Compositions and, in Particular, as IKK Inhibitors” (sanofi-aventis, priority 2005, published 2008)

| melting point [°C] | SMILES |
| --- | --- |
| 128 | CNC1CCC(N(CCN2CCCC2)S(=O)(=O)c2ccc(Nc3nccc(Nc4ccc(F)cc4)n3)cc2)CC1 (stereo not drawn) [Example 147, 4-({4-[(4-Fluorophenyl)amino]pyrimidin-2-yl}amino)-N-(4-trans(methylamino)cyclohexyl)-N-(2-pyr-rolidin-1-ylethyl)benzenesulfonamide] |
| 187 | C#CCN(C1CCN(C)CC1)S(=O)(=O)c1ccc(Nc2nccc(Nc3ccc(F)cc3)n2)cc1 [Example 148, 4-({4-[(4-Fluorophenyl)amino]pyrimidin-2-yl}amino)-N-propargyl-N-(1-methylpiperidin-4-yl)-benzenesulfonamide] |
| 154 | CCN(C1CCN(C)CC1)S(=O)(=O)c1ccc(Nc2nccc(Nc3ccc(F)cc3)n2)cc1 [Example 149, 4-({4-[(4-Fluorophenyl)amino]pyrimidin-2-yl}amino)-N-ethyl-N-(1-methylpiperidin-4-yl)benzene-sulfonamide] |
| 125 to 128 | CN(C1CCN(C2CC2)CC1)S(=O)(=O)c1ccc(Nc2nccc(Nc3ccc(F)cc3)n2)cc1 [Example 150, N-(1-Cyclopropylpiperidin-4-yl)-4-({4-[(4-fluorophenyl)amino]pyrimidin-2-yl}amino)-N-methyl-benzenesulfonamide] |
| 85 | CN1CCC(N(CC[C@H]2CCCN2)S(=O)(=O)c2ccc(Nc3nccc(Nc4ccc(F)cc4)n3)cc2)CC1 [Example 153, 4-({4-[(4-Fluorophenyl)amino]pyrimidin-2-yl}amino)-N-(1-methylpiperidin-4-yl)-N-{2-[(2R)-pyrrol-idin-2-yl]ethyl}benzenesulfonamide] |
| 139 | COc1cc(Nc2ccnc(Nc3ccc(S(=O)(=O)N(CCN4CCCC4)C4CCN(C5CC5)CC4)cc3)n2)ccc1F [Example 156] |
| 129 | CN1CCC(N(Cc2cccn2C)S(=O)(=O)c2ccc(Nc3nccc(Nc4ccc(F)cc4)n3)cc2)CC1 [Example 161, 4-({4-[(4-Fluorophenyl)amino]pyrimidin-2-yl}amino)-N-(1-methylpiperidin-4-yl)-N-[(1-methyl-1H-pyrrol-2-yl)methyl]benzenesulfonamide] |
| 226.9 | CN1CCC(N(C)S(=O)(=O)c2ccc(Nc3nccc(Nc4cc(F)c(F)c(F)c4)n3)cc2)CC1 [Example 162, 4-[4-(3,4,5-Trifluorophenylamino)pyrimidin-2-ylamino]-N-methyl-N-(1-methylpiperidin-4-yl)benzenesulfonamide] |
| 204 | CN(C1CCN(CCS(C)(=O)=O)CC1)S(=O)(=O)c1ccc(Nc2nccc(Nc3ccc(F)c(F)c3)n2)cc1 [Example 163, 4-({4-[(3,4-Difluorophenyl)amino]pyrimidin-2-yl}amino)-N-methyl-N-{1-[2-(methyl-sulfonyl)ethyl]piperidin-4-yl}benzenesulfonamide] |
| 149 to 152 | CN(C1CCN(Cc2cccn2C)CC1)S(=O)(=O)c1ccc(Nc2nccc(Nc3ccc(F)c(F)c3)n2)cc1 [Example 164, 4-({4-[(3,4-Difluorophenyl)amino]pyrimidin-2-yl}amino)-N-methyl-N-{1-[(1-methyl-1H-pyrrol-2-yl)methyl]piperidin-4-yl)benzenesulfonamide] |
| 172 to 173 | CN(C1CCN(Cc2csnn2)CC1)S(=O)(=O)c1ccc(Nc2nccc(Nc3ccc(F)c(F)c3)n2)cc1 [Example 165, 4-({4-[(3,4-Difluorophenyl)amino]pyrimidin-2-yl}amino)-N-methyl-N-(1-{[1-(1,2,3)thiadiazol-4-yl]methyl}piperidin-4-yl)benzenesulfonamide] |
| 204 to 206 | Cc1cc(CN2CCC(N(C)S(=O)(=O)c3ccc(Nc4nccc(Nc5ccc(F)c(F)c5)n4)cc3)CC2)no1 [Example 166, 4-({4-[(3,4-Difluorophenyl)amino]pyrimidin-2-yl}amino)-N-methyl-N-{1-[(5-methylisoxazol-3-yl)methyl]piperidin-4-yl}benzenesulfonamide] |
| 234 to 235 | CN(C1CCN(CC(C)(C)O)CC1)S(=O)(=O)c1ccc(Nc2nccc(Nc3ccc(F)c(F)c3)n2)cc1 [Example 167, 4-[4-(3,4-Difluorophenylamino)pyrimidin-2-ylamino]-N-[1-(2-hydroxy-2-methylpropyl)piperidin-4-yl]-N-methylbenzenesulfonamide] |
| 184 | Cc1cc(Nc2ccnc(Nc3ccc(S(=O)(=O)N(Cc4ccco4)C4CCC(=O)CC4)cc3)n2)ccc1F [Example 168] |
| 189 | Cc1cc(Nc2ccnc(Nc3ccc(S(=O)(=O)N(CC4CCCO4)C4CCC(=O)CC4)cc3)n2)ccc1F (stereo not drawn) [Example 169] |
